Publication PMC8780828 (Viruses, 2021)
“Also recorded” adds a separate entry of the source. Where two headings read alike, the source gives them in different places.

Assays:
[1] = system: pseudovirus NL4-3ΔEnv-NanoLuc/SARS-CoV; assay: microbe, parasite or virus in culture; assay type: cell-based; settings: Severe acute respiratory syndrome coronavirus, HT-1080; n=3; read-out: IC50
[2] = system: pseudovirus NL4-3ΔEnv-NanoLuc/MERS-CoV; assay: microbe, parasite or virus in culture; assay type: cell-based; settings: Middle East respiratory syndrome-related coronavirus, MRC5; n=3; read-out: IC50
MERS-CoV pseudovirus = assay: microbe, parasite or virus in culture; assay type: cell-based; settings: Middle East respiratory syndrome-related coronavirus
[3] = system: pseudovirus NL4-3ΔEnv-NanoLuc/SARS-CoV; assay: microbe, parasite or virus in culture; assay type: cell-based; settings: Severe acute respiratory syndrome coronavirus, 293T/ACE2; n=3
[4] = system: SARS-CoV-2 (US_WA-1/2020); assay type: cell-based
[5] = system: NL4-3ΔEnv-NanoLuc/SARS-CoV-2; assay: organism not typed; assay type: cell-based
[6] = system: pseudovirus NL4-3ΔEnv-NanoLuc/SARS-CoV; assay: microbe, parasite or virus in culture; assay type: cell-based; settings: Severe acute respiratory syndrome coronavirus, A549-ACE2; n=3; read-out: IC50
[7] = system: control pseudovirus NL4-3.Luc.R-E-/A-MLV; assay: Control pseudovirus A-MLV assay in 293T/ACE2 cells; assay type: cell-based, amphotropic murine leukemia virus (A-MLV); settings: NL43, 293T/ACE2
[8] = system: pseudovirus NL4-3ΔEnv-NanoLuc/SARS-CoV-2; assay: SARS-CoV-2 pseudovirus assay with pre-treated 293T/ACE2 cells; assay type: cell-based; settings: 293T/ACE2 cells pre-treated with compound 30 min before infection
[9] = system: pseudovirus NL4-3ΔEnv-NanoLuc/MERS-CoV; assay: microbe, parasite or virus in culture; assay type: cell-based; settings: Middle East respiratory syndrome-related coronavirus, Huh-7; n=3; read-out: IC50
[10] = system: pseudovirus NL4-3ΔEnv-NanoLuc/SARS-CoV-2; assay: organism not typed; assay type: cell-based; settings: HT-1080; n=3
[11] = system: pseudovirus NL4-3ΔEnv-NanoLuc/SARS-CoV-2; assay: organism not typed; assay type: cell-based; settings: A549-ACE2; n=3
[12] = system: pseudovirus NL4-3ΔEnv-NanoLuc/SARS-CoV-2; assay: organism not typed; assay type: cell-based; settings: 293T/ACE2
in vitro [13] = settings: human
in vitro [14] = settings: human; remark: listed apart in the source
β-lactamase = assay type: biochemical
[15] = biological target: malate dehydrogenase (MDH); assay type: biochemical
Trypsin = assay type: biochemical
in vitro [16] = settings: both, human, microsomes, pH 7.4
SARS-CoV-2 [17] = settings: Vero E6 cells; NLuc-based assay; cited from earlier work
SARS-CoV-2 [18] = settings: A549-hACE2 cells; NLuc-based assay; cited from earlier work
FLuc = FLuc (Photinus pyralis, UniProt P08659); assay type: biochemical
FLuc, sequence (P08659 whole entry): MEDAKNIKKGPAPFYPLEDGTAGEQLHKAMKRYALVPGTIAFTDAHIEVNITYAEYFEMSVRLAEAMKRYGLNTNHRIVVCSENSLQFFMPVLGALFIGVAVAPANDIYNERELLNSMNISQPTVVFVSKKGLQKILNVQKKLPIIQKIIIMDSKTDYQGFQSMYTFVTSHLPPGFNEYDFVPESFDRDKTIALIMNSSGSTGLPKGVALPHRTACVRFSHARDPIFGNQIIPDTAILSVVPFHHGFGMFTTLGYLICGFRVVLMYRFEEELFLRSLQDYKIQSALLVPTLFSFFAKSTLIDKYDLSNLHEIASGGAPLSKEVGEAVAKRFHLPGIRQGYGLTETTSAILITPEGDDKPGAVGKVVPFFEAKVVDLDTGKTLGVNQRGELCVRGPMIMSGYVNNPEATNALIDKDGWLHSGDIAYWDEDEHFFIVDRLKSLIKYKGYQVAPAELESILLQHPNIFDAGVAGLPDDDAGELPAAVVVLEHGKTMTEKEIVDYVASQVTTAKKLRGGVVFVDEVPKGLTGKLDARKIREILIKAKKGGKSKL

Row | Structure (SMILES) | IC50 [10] | IC50 [12] | antiviral activity against SARS-CoV-2 pseudovirus [5] | CC50 (in vitro [13]) | CC50 (in vitro [14]) | further results
1 | Cc1c(C(=O)O)cncc1-c1ccc(/C=C2\SC(=S)N(CCc3ccccc3)C2=O)o1 [NBCoV9] | 365 ± 73 nM | 342 ± 46 nM | – | – | – | IC50 [1]: 246 ± 10 nM; IC50 [2]: 232 ± 17 nM; IC50 (MERS-CoV pseudovirus): ~200 nM; IC50 [3]: 217 ± 22 nM; IC100 [4]: > 10 µM; IC100 (range of IC100 values detected in the three cell lines) [5]: 2 to 3 µM; IC50 [6]: 350 ± 15 nM; IC50 [7]: 1630 ± 118 nM; IC50 [8]: > 2000 nM; IC50 [9]: 214 ± 23 nM; IC50 [11]: 596 ± 42 nM
2 | O=C1C(=Cc2ccc(-c3ccc(Cl)cc3)o2)SC(=S)N1CCc1ccccc1 [NBCoV15, 5-((5-(4-chlorophenyl)furan-2-yl)methylene)-3-phenethyl-2-thioxothiazolidin-4-one] | > 2000 nM | > 2000 nM | virtually no inhibition; also recorded: no antiviral activity; also recorded: no antiviral potency | – | – | –
3 | O=C1NC(=S)S/C1=C\c1ccc(-c2ccc(Cl)c(C(=O)O)c2)o1 [NBCoV17] | > 2000 nM | > 2000 nM | no antiviral activity; also recorded: did not show any inhibitory activities | > 100000 nM | > 100000 nM | –
4 | C#CCN1C(=O)/C(=C/c2ccc(-c3ccc(Cl)c(C(=O)O)c3)o2)SC1=S [NBCoV28] | > 2000 nM | > 2000 nM | no antiviral activity; also recorded: did not show any inhibitory activities | 92000 ± 3000 nM | > 100000 nM | –
5 | O=C1NC(=S)S/C1=C\c1ccc(-c2ccc(C(=O)O)cc2)o1 [NBCoV34] | > 2000 nM | > 2000 nM | no antiviral activity; also recorded: no inhibitory activity | ~100000 nM | 83000 ± 4000 nM | IC50 (β-lactamase): > 2000 nM; IC50 [15]: > 2000 nM; IC50 (Trypsin): > 2000 nM
6 | C[C@]12CC[C@H]3[C@@H](CCC4=CC(=O)CC[C@@]43C)[C@@H]1CC[C@@H]2O [Testosterone, reference compound] | – | – | – | – | – | half-life (in vitro [16]): 11.3 min; microsomal CLint (in vitro [16]): 122 µL/min/mg
7 | CCC(CC)COC(=O)[C@H](C)N[P@](=O)(OC[C@H]1O[C@@](C#N)(c2ccc3c(N)ncnn23)[C@H](O)[C@@H]1O)Oc1ccccc1 [remdesivir] | – | – | – | – | – | antiviral potency (SARS-CoV-2 [17]): 1280 nM; antiviral potency (SARS-CoV-2 [18]): 115 nM
8 | Oc1ccc(/C=C/c2cc(O)cc(O)c2)cc1 [resveratrol] | – | – | – | – | – | effect on FLuc activity (FLuc): completely blocked
